# Measurements taken from ChEMBL document CHEMBL4673346, “Discovery of a benzimidazole series as the first highly potent and selective ACSL1 inhibitors” (Bioorg Med Chem Lett, 2021).
# How the values were obtained:
# [1] = AUC in rat at 1 mg/kg, po; assay type: ADME, organism-based; set-up: dose 1 mg/kg; settings: in vivo
# [2] = molecular target: Cytochrome P450 2C19 (Homo sapiens, UniProt P33261); assay: Inhibition of CYP2C19 (unknown origin); assay type: ADME
# [3] = Metabolic stability in human liver microsomes assessed as compound remaining after 30 mins; assay type: ADME, Microsome; settings: read-out: Stabilty
# [4] = Metabolic stability in rat liver microsomes assessed as compound remaining after 30 mins; assay type: ADME, Microsome; settings: read-out: Stabilty
# [5] = molecular target: Cytochrome P450 3A4 (Homo sapiens, UniProt P08684); assay: Inhibition of CYP3A4 (unknown origin); assay type: ADME
# Sequence of Cytochrome P450 3A4 (P08684 whole entry): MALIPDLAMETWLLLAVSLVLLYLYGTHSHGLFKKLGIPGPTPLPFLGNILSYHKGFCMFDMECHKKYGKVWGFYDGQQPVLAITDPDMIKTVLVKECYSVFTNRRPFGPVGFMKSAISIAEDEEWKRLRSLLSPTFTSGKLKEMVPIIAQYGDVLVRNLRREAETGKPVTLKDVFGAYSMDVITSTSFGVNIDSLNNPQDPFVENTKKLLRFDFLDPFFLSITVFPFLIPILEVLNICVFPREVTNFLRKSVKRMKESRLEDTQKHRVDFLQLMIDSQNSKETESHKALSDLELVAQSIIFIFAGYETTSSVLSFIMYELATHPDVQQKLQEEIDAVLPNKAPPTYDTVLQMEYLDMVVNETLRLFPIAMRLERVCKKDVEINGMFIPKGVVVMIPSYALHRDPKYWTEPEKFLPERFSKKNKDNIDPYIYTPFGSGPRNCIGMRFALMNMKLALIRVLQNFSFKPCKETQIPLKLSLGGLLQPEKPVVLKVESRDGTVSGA
# [6] = test system: Mus musculus; assay: In vivo inhibition of ACSL1 in mouse assessed as reduction in acyl-coA production in liver administered orally using palmitic acid as substrate and measured after 17 hrs; assay type: functional, organism-based; settings: dose 0.3-1 mg/kg
# [7] = Metabolic stability in mouse liver microsomes assessed as compound remaining after 30 mins; assay type: ADME, Microsome; settings: read-out: Stabilty
# [8] = molecular target: T1, Long-chain-fatty-acid--CoA ligase 1 (Homo sapiens, UniProt P33121); assay: Inhibition of recombinant human ACSL1 assessed as reduction in […] prodution incubated for 90 mins in presence of Coenzyme A, ATP and MgCl2 by MALDI-TOF MS analysis
# T1 sequence (P33121 whole entry): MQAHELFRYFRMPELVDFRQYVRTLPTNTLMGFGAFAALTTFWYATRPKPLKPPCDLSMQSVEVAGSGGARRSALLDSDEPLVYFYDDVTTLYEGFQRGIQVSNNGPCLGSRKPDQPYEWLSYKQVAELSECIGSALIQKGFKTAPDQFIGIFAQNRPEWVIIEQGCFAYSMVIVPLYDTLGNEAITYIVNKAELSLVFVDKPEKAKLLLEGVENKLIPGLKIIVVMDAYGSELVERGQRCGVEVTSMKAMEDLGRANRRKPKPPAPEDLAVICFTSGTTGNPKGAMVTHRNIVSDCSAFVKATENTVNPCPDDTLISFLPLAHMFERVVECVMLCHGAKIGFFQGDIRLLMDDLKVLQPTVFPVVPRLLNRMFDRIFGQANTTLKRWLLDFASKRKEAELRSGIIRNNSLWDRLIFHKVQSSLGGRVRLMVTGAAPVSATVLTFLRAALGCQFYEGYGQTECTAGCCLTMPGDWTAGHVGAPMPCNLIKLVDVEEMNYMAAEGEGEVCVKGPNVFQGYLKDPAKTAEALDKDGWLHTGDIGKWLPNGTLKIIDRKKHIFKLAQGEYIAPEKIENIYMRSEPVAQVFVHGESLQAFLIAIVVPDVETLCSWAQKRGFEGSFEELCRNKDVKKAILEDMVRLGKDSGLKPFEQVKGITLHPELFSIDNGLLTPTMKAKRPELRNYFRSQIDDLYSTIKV
# [9] = Inhibition of insulin/isobutyl-1-methylxanthin/dexamethasone-induced adipocytes differentiation in mouse 3T3-L1 cells by measuring 14C-triglyceride levels incubated for 1 hrs followed by oleic acid addition and measured after 10 mins by microbeta scintillation counting method; assay type: functional; settings: 3T3-L1, 1.167 h, time 70 min
# [10] = Fraction unbound in rat plasma; assay type: ADME, cell-free
# [11] = molecular target: Cytochrome P450 2C9 (Homo sapiens, UniProt P11712); assay: Inhibition of CYP2C9 (unknown origin); assay type: ADME
# Sequence of Cytochrome P450 2C9 (P11712 whole entry): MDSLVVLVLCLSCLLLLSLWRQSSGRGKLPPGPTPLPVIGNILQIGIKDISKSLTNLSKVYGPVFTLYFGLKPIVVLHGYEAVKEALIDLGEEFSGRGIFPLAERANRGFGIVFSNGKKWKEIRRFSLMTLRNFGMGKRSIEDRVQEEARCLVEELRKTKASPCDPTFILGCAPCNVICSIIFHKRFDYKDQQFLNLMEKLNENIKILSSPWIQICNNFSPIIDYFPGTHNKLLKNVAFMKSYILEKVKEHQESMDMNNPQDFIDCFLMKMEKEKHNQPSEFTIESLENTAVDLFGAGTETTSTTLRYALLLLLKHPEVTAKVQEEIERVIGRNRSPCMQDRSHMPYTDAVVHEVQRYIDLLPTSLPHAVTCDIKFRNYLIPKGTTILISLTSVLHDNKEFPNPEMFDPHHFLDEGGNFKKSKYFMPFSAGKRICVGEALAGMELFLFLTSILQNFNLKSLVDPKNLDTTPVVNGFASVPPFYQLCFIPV
# [12] = molecular target: T2, Long-chain-fatty-acid--CoA ligase 6 (Homo sapiens, UniProt Q9UKU0); assay: Inhibition of recombinant human ACSL6 assessed as reduction in […] prodution incubated for 60 mins in presence of Coenzyme A, ATP and MgCl2 by MALDI-TOF MS analysis
# T2 sequence (Q9UKU0 whole entry): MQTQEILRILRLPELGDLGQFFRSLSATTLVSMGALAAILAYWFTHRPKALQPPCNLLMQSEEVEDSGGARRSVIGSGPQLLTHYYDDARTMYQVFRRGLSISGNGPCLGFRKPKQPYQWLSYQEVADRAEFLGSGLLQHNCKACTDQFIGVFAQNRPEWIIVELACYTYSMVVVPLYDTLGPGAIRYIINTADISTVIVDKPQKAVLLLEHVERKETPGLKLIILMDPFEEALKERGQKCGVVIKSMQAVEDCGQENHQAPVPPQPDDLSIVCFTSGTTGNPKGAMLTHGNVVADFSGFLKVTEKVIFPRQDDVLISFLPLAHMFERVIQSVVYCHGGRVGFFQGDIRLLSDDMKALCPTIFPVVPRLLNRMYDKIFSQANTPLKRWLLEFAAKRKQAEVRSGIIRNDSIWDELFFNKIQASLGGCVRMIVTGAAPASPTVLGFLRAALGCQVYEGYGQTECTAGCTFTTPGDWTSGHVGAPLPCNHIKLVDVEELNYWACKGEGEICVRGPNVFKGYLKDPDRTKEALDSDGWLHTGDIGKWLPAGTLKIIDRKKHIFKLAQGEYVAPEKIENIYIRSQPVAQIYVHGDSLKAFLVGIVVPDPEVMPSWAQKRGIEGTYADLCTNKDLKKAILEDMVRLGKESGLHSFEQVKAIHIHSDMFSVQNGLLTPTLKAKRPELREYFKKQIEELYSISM
# [13] = molecular target: Long-chain-fatty-acid--CoA ligase 4 (Homo sapiens, UniProt O60488); assay: Inhibition of recombinant human ACSL4 assessed as reduction in […] prodution incubated for 120 mins in presence of Coenzyme A, ATP and MgCl2 by MALDI-TOF MS analysis
# Sequence of Long-chain-fatty-acid--CoA ligase 4 (O60488 whole entry): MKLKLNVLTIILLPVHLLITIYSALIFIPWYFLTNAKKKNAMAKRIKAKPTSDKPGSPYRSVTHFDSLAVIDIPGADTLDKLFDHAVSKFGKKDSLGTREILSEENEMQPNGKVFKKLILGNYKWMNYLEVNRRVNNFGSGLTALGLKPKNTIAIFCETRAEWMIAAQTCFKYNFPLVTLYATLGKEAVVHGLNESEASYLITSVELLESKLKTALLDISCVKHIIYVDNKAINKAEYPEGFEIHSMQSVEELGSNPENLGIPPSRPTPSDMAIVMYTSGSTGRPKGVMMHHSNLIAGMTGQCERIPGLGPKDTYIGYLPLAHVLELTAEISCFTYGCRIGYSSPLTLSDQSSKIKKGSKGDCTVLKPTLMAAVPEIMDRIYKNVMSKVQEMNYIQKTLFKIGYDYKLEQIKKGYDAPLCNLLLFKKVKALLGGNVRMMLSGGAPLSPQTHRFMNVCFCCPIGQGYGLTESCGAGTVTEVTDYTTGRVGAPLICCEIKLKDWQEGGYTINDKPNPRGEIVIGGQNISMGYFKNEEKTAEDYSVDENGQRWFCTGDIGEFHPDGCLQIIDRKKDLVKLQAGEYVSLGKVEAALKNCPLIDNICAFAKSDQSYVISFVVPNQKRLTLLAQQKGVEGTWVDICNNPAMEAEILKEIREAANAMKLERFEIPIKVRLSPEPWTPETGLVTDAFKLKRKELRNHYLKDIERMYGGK
# [14] = Cmax in rat at 1 mg/kg, po; assay type: ADME, organism-based; set-up: route oral, dose 1 mg/kg; settings: in vivo
# [15] = AUC in rat at 0.5 mg/kg, iv; assay type: ADME, organism-based; set-up: dose 0.5 mg/kg; settings: in vivo
# [16] = molecular target: T3, Cytochrome P450 1A2 (Homo sapiens, UniProt P05177); assay: Inhibition of CYP1A2 (unknown origin); assay type: ADME
# T3 sequence (P05177 whole entry): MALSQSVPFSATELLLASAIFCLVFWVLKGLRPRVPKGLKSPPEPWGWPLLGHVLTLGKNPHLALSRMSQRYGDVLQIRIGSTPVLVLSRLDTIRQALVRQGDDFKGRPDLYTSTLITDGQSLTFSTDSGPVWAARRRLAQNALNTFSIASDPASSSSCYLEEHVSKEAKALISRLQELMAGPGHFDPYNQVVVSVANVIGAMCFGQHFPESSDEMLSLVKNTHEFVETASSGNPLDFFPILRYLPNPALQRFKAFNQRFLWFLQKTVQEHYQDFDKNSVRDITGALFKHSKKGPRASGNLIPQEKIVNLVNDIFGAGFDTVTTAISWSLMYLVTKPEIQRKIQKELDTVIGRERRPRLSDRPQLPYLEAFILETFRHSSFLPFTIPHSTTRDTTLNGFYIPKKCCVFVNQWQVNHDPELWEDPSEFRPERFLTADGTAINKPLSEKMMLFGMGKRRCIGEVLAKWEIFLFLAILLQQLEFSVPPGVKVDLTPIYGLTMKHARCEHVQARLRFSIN
# [17] = Tmax in rat at 1 mg/kg, po; assay type: ADME, organism-based; settings: in vivo
# [18] = Solubility of compound in pH 6.8; assay type: physicochemical; settings: buffer
# [19] = Oral bioavailability in rat at 1 mg/kg; assay type: ADME, organism-based; settings: in vivo
# [20] = test system: Mus musculus; assay: In vivo inhibition of ACSL1 in mouse assessed as reduction in acyl-coA production in liver administered orally using palmitoleic acid as substrate and measured after 17 hrs; assay type: functional, organism-based; settings: dose 0.3-1 mg/kg
# Sequence of Cytochrome P450 2C19 (P33261 whole entry): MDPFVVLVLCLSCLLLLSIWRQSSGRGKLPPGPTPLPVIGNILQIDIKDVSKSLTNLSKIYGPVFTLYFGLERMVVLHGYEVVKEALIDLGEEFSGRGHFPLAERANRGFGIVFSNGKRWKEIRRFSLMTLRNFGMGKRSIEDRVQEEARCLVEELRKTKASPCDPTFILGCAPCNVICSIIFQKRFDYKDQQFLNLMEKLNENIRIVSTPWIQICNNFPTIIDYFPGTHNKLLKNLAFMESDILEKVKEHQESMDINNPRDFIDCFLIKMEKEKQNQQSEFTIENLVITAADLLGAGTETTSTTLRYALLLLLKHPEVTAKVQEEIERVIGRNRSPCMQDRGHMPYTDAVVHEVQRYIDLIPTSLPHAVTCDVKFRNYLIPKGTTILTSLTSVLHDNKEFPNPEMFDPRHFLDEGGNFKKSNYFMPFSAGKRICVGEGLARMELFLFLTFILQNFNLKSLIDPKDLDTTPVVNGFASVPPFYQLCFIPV
smiles,measurement,setting,value
Cc1cccc(Cc2nc3cc(O[C@H]4CC[C@@H](C(=O)O)CC4)ccc3n2C)c1,AUC,[1],11800 ng·h/mL
same,IC50,[2],> 20 µM
same,remaining at 0.5 h,[3],96%
same,remaining at 0.5 h,[4],93%
same,IC50,[5],> 20 µM
same,inhibition,[6],Dose-dependent effect
same,remaining at 0.5 h,[7],99%
same,IC50,[8],0.042 µM
same,IC30,[9],0.039 µM
same,fraction unbound,[10],0.017
same,IC50,[11],> 20 µM
same,IC50,[12],> 200 µM
same,IC50,[13],> 200 µM
same,Cmax,[14],1110 ng/mL
same,AUC,[15],4970 ng·h/mL
same,IC50,[16],> 20 µM
same,Tmax,[17],2.5 h
same,solubility,[18],8.6 µg/mL
same,bioavailability,[19],119%
same,inhibition,[20],Dose-dependent effect
